Consider three compounds from ChEMBL document CHEMBL1212919, “An efficient approach to the discovery of potent inhibitors against glycosyltransferases” (J Med Chem, 2010).

Assay [1] deals with T1, CMP-N-acetylneuraminate-beta-1,4-galactoside alpha-2,3-sialyltransferase (Rattus norvegicus, UniProt Q02734).
T1 sequence (Q02734 whole entry): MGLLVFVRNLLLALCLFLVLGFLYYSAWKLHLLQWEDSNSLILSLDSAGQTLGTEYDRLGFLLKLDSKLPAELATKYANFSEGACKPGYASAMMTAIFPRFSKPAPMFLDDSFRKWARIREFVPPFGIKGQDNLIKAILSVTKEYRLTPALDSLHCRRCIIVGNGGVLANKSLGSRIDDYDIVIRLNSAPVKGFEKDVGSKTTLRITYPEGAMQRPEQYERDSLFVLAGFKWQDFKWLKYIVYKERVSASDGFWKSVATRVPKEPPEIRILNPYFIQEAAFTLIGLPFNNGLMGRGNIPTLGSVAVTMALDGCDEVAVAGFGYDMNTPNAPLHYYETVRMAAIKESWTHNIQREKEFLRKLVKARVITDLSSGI
In words: Inhibition of rat recombinant alpha 2,3-(N)-sialyltransferase 3.

Assay [2] is filed under the species Rattus norvegicus.
Description: Inhibition of rat recombinant alpha 2,6-(N)-sialyltransferase 1 by Lineweaver-Burke plot analysis
Assay [3] can be described thus: Inhibition of alpha-(1,6)-fucosyltransferase after 60 mins by Lineweaver-Burke plot analysis.
The nature of assay [4]: Inhibition of alpha-(1,3)-fucosyltransferase after 60 mins by Lineweaver-Burke plot analysis.

In the case of `C[C@]12CC[C@@H]3c4ccc(O)cc4CC[C@H]3[C@@H]1CC[C@@]2(O)c1cn(CC(=O)N[C@H]2[C@H]([C@H](O)[C@H](O)CO)O[C@](OP(=O)(O)OC[C@H]3O[C@@H](n4ccc(N)nc4=O)[C@H](O)[C@@H]3O)(C(=O)O)C[C@@H]2O)nn1`, in assay [1], the IC50 worked out at 8.2 µM. Besides, the Michaelis constant (Km) in assay [2] is 125 µM. In assay [3], `CCCCCc1ccc(-c2cn(C[C@@H]3O[C@H](OP(=O)(O)OP(=O)(O)OC[C@H]4O[C@@H](n5cnc6c(=O)[nH]c(N)nc65)[C@H](O)[C@@H]4O)[C@@H](O)[C@H](O)[C@@H]3O)nn2)cc1` had an inhibition constant (Ki) of 13.8 µM. `C[C@]12CC[C@@H]3c4ccc(O)cc4CC[C@H]3[C@@H]1CC[C@@]2(O)c1cn(C[C@@H]2O[C@H](OP(=O)(O)OP(=O)(O)OC[C@H]3O[C@@H](n4cnc5c(=O)[nH]c(N)nc54)[C@H](O)[C@@H]3O)[C@@H](O)[C@H](O)[C@@H]2O)nn1` had a Ki in assay [4] of 0.293 µM.
